# Measurements from patent US20060183676A1, “Treatment of mycobacterium tuberculosis with antisense oligonucleotides” (priority 2001, published 2006).
# Where two headings read alike, the source gives them in different places. In the oligonucleotide strings, read from the 5' end, every base follows the letter of its sugar. An asterisk marks phosphorothioate; unmarked linkages are phosphodiester. Other units and linkages are bracketed, terminal groups are in braces. A string of capitals states the bases alone. Bridge positions count the residues as written; N and C are the ends. Square brackets hold non-standard residues; d marks the D form. Peptide text beside a SMILES is read from it. {FL} = fluorescein label; Dab = NCC[C@H](N)C(=O)O; d = 2'-deoxy (DNA); m = 2'-O-methyl
# Experiments:
# [1] = test system: M. tuberculosis Erdman strain; type: cell-based
# [2] = test system: M. tuberculosis Erdman strain; type: cell-based; conditions: 6 weeks, O.D.; for inhibition of M. tuberculosis in the presence of antibiotic (in words): 10 μM plus ethambutol 5 μg/ml; for M. tuberculosis growth in the absence of antibiotic (in words): 10 μM
# M. tuberculosis = type: cell-based; conditions: log reduction in CFU vs untreated control or MM-PS-ODN cultures; 10 μM, added once at start
# M. tuberculosis Erdman [3] = conditions: Harth et al. 1999, cited from earlier work
# [4] = test system: M. tuberculosis Erdman glutamine synthetase; conditions: 20 μM; Harth et al. 1999; cited from earlier work
# [5] = test system: poly-L-glutamate/glutamine in the cell wall of M. tuberculosis; conditions: 20 μM; Harth et al. 1999; cited from earlier work
# M. tuberculosis Erdman [6] = type: cell-based
# M. smegmatis 1-2c [7] = assay: microbe, parasite or virus in culture; conditions: Mycolicibacterium smegmatis, 12C
# M. tuberculosis Erdman [8] = assay: microbe, parasite or virus in culture; conditions: Mycobacterium tuberculosis
# M. smegmatis 1-2c [9] = test system: M. smegmatis 1-2c
# M. tuberculosis Erdman [10] = test system: M. tuberculosis Erdman
compound,measurement,setting,value
5-GAACGCCGGGGTGTTGATGTCCCAGCCG (SEQ ID NO: 14) [ML10],"inhibition of M. tuberculosis growth in the presence of ethambutol, added only once","[1]; 10 μM plus ethambutol 5 μg/ml, 9 weeks",slightly enhanced the inhibition
same,"M. tuberculosis growth relative to control, added only once at the start","[1]; 10 μM, no antibiotic, 9 weeks, O.D.",slightly inhibited
same,"M. tuberculosis growth relative to control, added weekly for 9 weeks","[1]; 10 μM, no antibiotic, O.D.",inhibited
"5′-CACCTTCGCCACGATTGGAGCCCTCCA (SEQ ID NO: 13) (phosphorothioate, further chemistry not given here; listed as Mycobacterium tuberculosis) [Val 41, PS-ODN against nucleotides −15 to 12 of the groES gene]",inhibition of M. tuberculosis in the presence of antibiotic (in words),[2],enhanced the inhibition
same,M. tuberculosis growth in the absence of antibiotic (in words),[2],did not inhibit
5′-CCATGTCTTCACCGCTTCATCCTG (SEQ ID NO: 10) [Val 26],inhibition of M. tuberculosis in the presence of antibiotic (in words),[2],enhanced the inhibition
same,M. tuberculosis growth in the absence of antibiotic (in words),[2],did not inhibit
5′-CGCTTCATCCTGCCGTGTCGG (SEQ ID NO: 8) [Val 24],inhibition of M. tuberculosis in the presence of antibiotic (in words),[2],enhanced the inhibition
same,M. tuberculosis growth in the absence of antibiotic (in words),[2],did not inhibit
5′-TGCCGCAGCCACGGCGACGGCCGTGGT (SEQ ID NO: 11) [Val 33],inhibition of M. tuberculosis in the presence of antibiotic (in words),[2],enhanced the inhibition
same,M. tuberculosis growth in the absence of antibiotic (in words),[2],inhibited
5′-TGCCGCAGCCACGGCGACGGCCGTGGTGTCCGAACC (SEQ ID NO: 12) [Val 34],inhibition of M. tuberculosis in the presence of antibiotic (in words),[2],enhanced the inhibition
same,M. tuberculosis growth in the absence of antibiotic (in words),[2],inhibited
5′-TGGCCATGTCTTCACCGCTTCATCCTG (SEQ ID NO: 9) [Val 25],M. tuberculosis growth in the absence of antibiotic (in words),[2],did not inhibit
5′-TGGGGCTGGCCATGTCTTCAC-3′ (SEQ ID NO: 7) [Val 23],inhibition of M. tuberculosis in the presence of antibiotic (in words),[2],enhanced the inhibition
same,M. tuberculosis growth in the absence of antibiotic (in words),[2],inhibited
"5′>2′OMeACGAAC-CCTGTCAACAAG-2′OMeCTGCAT (antisense ACGAACCCTGTCAACAAGCTGCAT; sugars from the 5' end m6 d12 m6, all phosphorothioate, T or U not given here) [fbpA (SEQ ID NO: 26), antisense PS-ODN against fbpA with O-methyl groups at the 5′ and 3′ ends]",log Reduction,M. tuberculosis,0.4 log
5′>2′OMeATTCTT-TCGGCTCACGTC-2′OMeTGTCAT [fbpB (SEQ ID NO: 25)],log Reduction,M. tuberculosis,0.4 log
5′>AACGAATTCCTTCTGTCGGTCCAT (dA*dA*dC*dG*dA*dA*dT*dT*dC*dC*dT*dT*dC*dT*dG*dT*dC*dG*dG*dT*dC*dC*dA*dT; antisense) [glnA2],log Reduction,M. tuberculosis,0.05-0.1 log
5′>AACGGGAGTGACACGTGATTCCAT (dA*dA*dC*dG*dG*dG*dA*dG*dT*dG*dA*dC*dA*dC*dG*dT*dG*dA*dT*dT*dC*dC*dA*dT) [mas],log Reduction,M. tuberculosis,0.35 log
5′>AATCCGGCTGAAAGCCGTTCGCATCAC (dA*dA*dT*dC*dC*dG*dG*dC*dT*dG*dA*dA*dA*dG*dC*dC*dG*dT*dT*dC*dG*dC*dA*dT*dC*dA*dC; antisense) [ppsB],log Reduction,M. tuberculosis,0 log
5′>AATGATTTCTTCCTGAGTGACAGGCAC (dA*dA*dT*dG*dA*dT*dT*dT*dC*dT*dT*dC*dC*dT*dG*dA*dG*dT*dG*dA*dC*dA*dG*dG*dC*dA*dC; antisense) [acpM],log Reduction,M. tuberculosis,0 log
"5′>ACGAACCCTGTCAACAAGCTGCAT-GGGGG (antisense dA*dC*dG*dA*dA*dC*dC*dC*dT*dG*dT*dC*dA*dA*dC*dA*dA*dG*dC*dT*dG*dC*dA*dT*dG*dG*dG*dG*dG) [fbpA (SEQ ID NO: 27), antisense PS-ODN against fbpA with five Gs attached to the 3′ end]",log Reduction,M. tuberculosis,0.8 log
5′>CAAGATGGACACCGTCACCGCTAC (dC*dA*dA*dG*dA*dT*dG*dG*dA*dC*dA*dC*dC*dG*dT*dC*dA*dC*dC*dG*dC*dT*dA*dC; antisense) [murX],log Reduction,M. tuberculosis,0 log
5′>CACATCCAGCGACTTGGCCAGCTC (dC*dA*dC*dA*dT*dC*dC*dA*dG*dC*dG*dA*dC*dT*dT*dG*dG*dC*dC*dA*dG*dC*dT*dC; antisense) [rfbE],log Reduction,M. tuberculosis,0 log
5′>CGCCGCGCGCTCCGCCAGACTTGTCAT (dC*dG*dC*dC*dG*dC*dG*dC*dG*dC*dT*dC*dC*dG*dC*dC*dA*dG*dA*dC*dT*dT*dG*dT*dC*dA*dT; antisense) [ppsD],log Reduction,M. tuberculosis,0 log
5′>CGCGATCGCGTTCTCGGGGATGCTCAC (dC*dG*dC*dG*dA*dT*dC*dG*dC*dG*dT*dT*dC*dT*dC*dG*dG*dG*dG*dA*dT*dG*dC*dT*dC*dA*dC; antisense) [ppsE],log Reduction,M. tuberculosis,0 log
5′>CGGCCCTGCATGTCGGTGAACGCG (dC*dG*dG*dC*dC*dC*dT*dG*dC*dA*dT*dG*dT*dC*dG*dG*dT*dG*dA*dA*dC*dG*dC*dG; antisense) [glnA4],log Reduction,M. tuberculosis,0 log
"5′>FL-GCCGGGGTGTTGATATCCCAGCCG (5' {FL}, sugars by position and backbone not given here) [fbpB (SEQ ID NO: 24), antisense PS-ODN against fbpB (30 kDa protein gene) with fluorescein attached to the 5′ end]",log Reduction,M. tuberculosis,0.6 log
"5′>GACATTCTCCCAGAACCGTTTCAC (chemistry not given here) [air, antisense PS-ODN against the alr gene (alanine racemase) transcript]",log Reduction,M. tuberculosis,0.2 log
5′>GCACGGTCTTGGCCTGGGTGAGTC (dG*dC*dA*dC*dG*dG*dT*dC*dT*dT*dG*dG*dC*dC*dT*dG*dG*dG*dT*dG*dA*dG*dT*dC; antisense) [glnA3],log Reduction,M. tuberculosis,0 log
5′>GCCATTAGCGGTGGAAGGCTGACTCAC (dG*dC*dC*dA*dT*dT*dA*dG*dC*dG*dG*dT*dG*dG*dA*dA*dG*dG*dC*dT*dG*dA*dC*dT*dC*dA*dC; antisense) [kasA],log Reduction,M. tuberculosis,0 log
5′>GCTCTGAAACGTGCCGGTCTGAAC (dG*dC*dT*dC*dT*dG*dA*dA*dA*dC*dG*dT*dG*dC*dC*dG*dG*dT*dC*dT*dG*dA*dA*dC; antisense) [fadD26],log Reduction,M. tuberculosis,0.65 log
5′>GGACACCTCGAGACCGTACTGCAC (dG*dG*dA*dC*dA*dC*dC*dT*dC*dG*dA*dG*dA*dC*dC*dG*dT*dA*dC*dT*dG*dC*dA*dC) [rfe],log Reduction,M. tuberculosis,0.25 log
"5′>TC(c->g)GCGATCTGGTGTCGCTGCGGTCAT (phosphorothioate, 5' TC(c->g) prefix, further chemistry not given here) [ppsC]",log Reduction,M. tuberculosis,0 log
5′>TTCACCACTGATGCTTCCCGTCAT (dT*dT*dC*dA*dC*dC*dA*dC*dT*dG*dA*dT*dG*dC*dT*dT*dC*dC*dC*dG*dT*dC*dA*dT; antisense) [ppsA],log Reduction,M. tuberculosis,0 log
5′>TTTGCCGTCCAGCAGTCCTGTCAT (chemistry not given here) [lnhA],log Reduction,M. tuberculosis,0.05 log
CS(=N)(=O)CC[C@H](N)C(=O)O (stereo partly drawn) [L-methionine-S-sulfoximine],inhibition of bacterial growth,M. tuberculosis Erdman [3]; 2 μM,1.5-2 log units
same,reduction of bacterial growth,M. tuberculosis Erdman [3]; 20 μM,≥ 2.5 log units
same,reduction of extracellular glutamine synthetase activity,[4],80%
same,reduction of the amount of the poly-L-glutamate/glutamine cell wall structure,[5],93%
"NCC[C@H](O)C(=O)N[C@@H]1C[C@H](N)[C@@H](O[C@H]2O[C@H](CN)[C@@H](O)[C@H](O)[C@H]2O)[C@H](O)[C@H]1O[C@H]1O[C@H](CO)[C@@H](O)[C@H](N)[C@H]1O [amikacin, reference compound]",antibacterial effect of free antibiotic (in words),M. tuberculosis Erdman [6]; 1 μM,bacteriostatic
same,antibacterial effect of free antibiotic (in words),M. tuberculosis Erdman [6]; 5.8 μg per ml (10 μM),strongly bactericidal
CC[C@@H](CO)NCCN[C@@H](CC)CO [ethambutol],MIC,M. smegmatis 1-2c [7],~10 µg/mL
same,MIC,M. tuberculosis Erdman [8],~5 µg/mL
CC(C)C[C@@H]1NC(=O)[C@@H](Cc2ccccc2)NC(=O)[C@H](CCN)NC(=O)[C@@H](NC(=O)[C@H](CCN)NC(=O)[C@@H](N)[C@@H](C)O)CCNC(=O)[C@H]([C@@H](C)O)NC(=O)[C@H](CCN)NC(=O)[C@H](CCN)NC1=O [polymyxin B nonapeptide] (H-T[Dab][Dab][Dab][dF]L[Dab][Dab]T; lactam 3-C; N-terminus assumed),MIC,M. smegmatis 1-2c [9],~5 µg/mL
same,MIC,M. tuberculosis Erdman [10],~5 µg/mL
